From patent publication US7531568B2, “PPAR active compounds” (Plexxikon, Inc., priority 2004, dated 2009)

Experiments:
PPARδ [1] = target: T1, PPARδ (Homo sapiens, UniProt Q03181); settings: cited from earlier work
T1 sequence (Q03181 1-441): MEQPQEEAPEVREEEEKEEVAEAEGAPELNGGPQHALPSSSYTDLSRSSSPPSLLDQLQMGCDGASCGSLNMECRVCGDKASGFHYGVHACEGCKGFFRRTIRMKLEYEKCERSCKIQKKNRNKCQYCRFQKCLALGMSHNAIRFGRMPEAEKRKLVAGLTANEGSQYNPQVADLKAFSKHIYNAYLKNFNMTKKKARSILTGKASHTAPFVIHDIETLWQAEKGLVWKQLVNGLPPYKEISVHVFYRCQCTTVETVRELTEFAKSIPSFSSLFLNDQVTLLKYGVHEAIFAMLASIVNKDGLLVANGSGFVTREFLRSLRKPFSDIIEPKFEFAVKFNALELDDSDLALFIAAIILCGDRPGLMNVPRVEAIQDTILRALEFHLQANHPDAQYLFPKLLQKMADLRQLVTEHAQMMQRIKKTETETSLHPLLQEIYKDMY

murine PPARα = target: T2, murine PPARα (Mus musculus, UniProt P23204); settings: cited from earlier work
T2 sequence (P23204 1-468): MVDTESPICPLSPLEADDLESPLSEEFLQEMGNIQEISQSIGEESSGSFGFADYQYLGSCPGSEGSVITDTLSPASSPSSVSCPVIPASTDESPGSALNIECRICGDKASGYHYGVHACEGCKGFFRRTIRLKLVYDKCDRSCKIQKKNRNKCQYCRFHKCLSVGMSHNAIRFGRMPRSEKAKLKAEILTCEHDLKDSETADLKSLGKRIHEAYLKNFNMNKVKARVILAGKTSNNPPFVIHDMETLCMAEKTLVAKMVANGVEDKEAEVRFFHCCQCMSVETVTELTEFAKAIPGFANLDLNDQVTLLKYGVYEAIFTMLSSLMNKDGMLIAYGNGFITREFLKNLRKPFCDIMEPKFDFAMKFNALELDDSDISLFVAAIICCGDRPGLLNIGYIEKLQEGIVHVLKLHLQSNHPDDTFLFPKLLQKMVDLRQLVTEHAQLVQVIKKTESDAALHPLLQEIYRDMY

PPARδ [2] = target: T3, PPARδ (Homo sapiens, UniProt Q03181); assay: homogenous Alpha screen assay, agonist mode, coactivator Biotin-PGC-1 peptide recruitment; type: biochemical; settings: His-tagged PPAR-LBD 10 nM, 25 nM biotin-PGC-1 peptide, 1 hour room temperature; read-out: EC50 with respect to PPARδ
T3 construct: P1057. pET BAM6 PPARD G165-Y441-X; made in house; host or cells: E. coli BL21(DE3)RIL
T3 sequence (Q03181 with tags, fused parts or gaps): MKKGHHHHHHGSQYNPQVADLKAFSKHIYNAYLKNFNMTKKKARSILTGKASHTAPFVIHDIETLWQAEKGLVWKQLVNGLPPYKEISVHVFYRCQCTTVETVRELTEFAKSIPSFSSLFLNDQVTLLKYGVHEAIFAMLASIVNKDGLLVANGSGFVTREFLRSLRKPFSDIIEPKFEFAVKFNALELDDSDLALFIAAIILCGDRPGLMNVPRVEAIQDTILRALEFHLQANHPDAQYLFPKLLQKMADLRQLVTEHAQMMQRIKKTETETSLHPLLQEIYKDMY
Description: (§1) Plasmids encoding the Ligand-binding domains (LBDs) of PPARα, PPARγ, and PPARδ were engineered using common polymerase chain reaction (PCR) methods (pGal4-PPARα-LBD, pGal4-PPARγ-LBD, pGal4-PPARδ-LBD). The relevant DNA sequences and encoded protein sequences used in the assay are shown for each (see below). Complementary DNA cloned from various human tissues was purchased from Invitrogen, and these were used as substrates in the PCR reactions. Specific custom synthetic oligonucleotide primers (Invitrogen, see below) were designed to initiate the PCR product, and also to provide the appropriate restriction enzyme cleavage sites for ligation with the plasmids.
For PPARδ protein expression, single colonies were grown for 4 hrs at 37° C. in 200 mL LB media. 16×1 L of fresh TB media in 2.8 L flasks were inoculated with 10 mL of starter culture and grown with constant shaking at 37° C. […] Cells were harvested by centrifugation and pellets frozen at −80° C. until ready for lysis/purification. […]
(§2) The homogenous Alpha screen assay was used in the agonist mode to determine the ligand dependent interaction of the PPARs (α,δ,γ) with the coactivator Biotin-PGC- 1 peptide (biotin-AHX-[…]-CONH2 (SEQ ID NO: 13), supplied by Wyeth). […] The samples were incubated for 1 hour in the dark at room temperature before taking the reading in the Fusion alpha or Alpha Quest reader. […]

PPARγ = target: T4, PPARγ (Homo sapiens, UniProt P37231); assay: as above; type: biochemical; settings: His-tagged PPAR-LBD 20 nM, 25 nM biotin-PGC-1 peptide, 1 hour room temperature; read-out: EC50 with respect to PPARγ
T4 sequence (P37231 with tags, fused parts or gaps): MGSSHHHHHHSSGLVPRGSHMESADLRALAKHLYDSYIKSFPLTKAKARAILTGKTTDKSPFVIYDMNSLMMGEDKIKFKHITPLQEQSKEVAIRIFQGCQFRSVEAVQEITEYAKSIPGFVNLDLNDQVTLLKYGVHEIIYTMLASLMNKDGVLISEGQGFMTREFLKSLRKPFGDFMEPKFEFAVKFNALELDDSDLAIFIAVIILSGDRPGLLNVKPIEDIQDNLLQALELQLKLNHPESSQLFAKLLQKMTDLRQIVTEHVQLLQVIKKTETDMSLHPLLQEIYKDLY
Description: as §1
For protein expression, plasmids containing genes of interest were transformed into E. coli strain BL21(DE3)RIL (Invitrogen) and transformants selected for growth on LB agar plates containing appropriate antibiotics. Single colonies were grown for 4 hrs at 37° C. in 200 ml LB media. […]. […]
as §2

[3] = recent large prospective trial; cited from earlier work

In the case of `CCCc1c(OCCCOc2ccc(OCC(=O)O)cc2)ccc(C(C)=O)c1O` [Compound L-165041], the “agonist selectivity for PPARδ over PPARγ” value (PPARδ [1]) is listed as “approximately 30 fold” and the “activity on murine PPARα” value (murine PPARα) is listed as “inactive”.

Work on `COc1ccc2c(c1)c(SCC(=O)O)cn2S(=O)(=O)c1ccc(Cl)c(Cl)c1` [Compound 27, [1-(3,4-dichloro-benzenesulfonyl)-5-methoxy-1H-indol-3-ylsulfanyl]-acetic acid] yielded an EC50 (PPARδ [2]) of under 1000 nM and an EC50 (PPARγ) of under 1000 nM.

For `Cc1ccc(C)c(OCCCC(C)(C)C(=O)O)c1` [gemfibrozil], the “reduction in cardiovascular events or death” value [3] is given as 22%.
